Data: patent US10376520B2, “Methods for the treatment of cardiovascular disorders” (Galapagos NV, priority 2015, dated 2019)

System: RA patients
Assay: [HDL] determination, Study 2 (RA patients, monotherapy)
Format: in vivo, human
Conditions: for [HDL] Mean percentage CFB - 12 weeks results / [HDL] Median percentage CFB - 12 weeks results: 50 mg q.d.
Excerpt: Randomized, double-blind, placebo-controlled, multicenter, phase IIb dose finding study of Compound 1 (dosed as a [Compound 1:HCl:3H2O]) administered for 24 weeks as monotherapy to subjects with moderately to severely active rheumatoid arthritis who have an inadequate response to methotrexate alone
Double-blind, placebo-controlled, monotherapy study in subjects with moderately to severely active RA who have an inadequate response to methotrexate (MTX) (oral or parenteral).
280 subjects randomized to one of 3 doses of Compound 1 (dosed as a [Compound 1:HCl:3H2O]) or to placebo, given once daily (q.d.).
Twelve weeks of treatment with Compound 1 (dosed as a [Compound 1:HCl:3H2O]) at 50 mg, 100 mg, or 200 mg q.d.; or placebo. At Week 12, all subjects on placebo and the subjects on the 50 mg dose who have not achieved 20% improvement in swollen joint count (SJC66) and tender joint count (TJC68) will be assigned to 100 mg q.d. in a blinded fashion and will continue treatment until Week 24. Subjects in the other groups will maintain their randomized treatment until Week 24.
This assay relies on a homogeneous enzymatic colorimetric test. In the presence of magnesium ions, dextran sulfate selectively forms water-soluble complexes with LDL, VLDL and chylomicrons which are resistant to PEG-modified enzymes.
The cholesterol concentration of [HDL]-cholesterol is determined enzymatically by cholesterol esterase and cholesterol oxidase coupled with PEG to the amino groups (approx. 40%).
In the presence of peroxidase, the hydrogen peroxide generated reacts with 4-amino-antipyrine and Sodium N-(2-hydroxy-3-sulfopropyl)-3,5-dimethoxyaniline (HSDA) to form a purple-blue dye. The color intensity of this dye is directly proportional to the cholesterol concentration and is measured photometrically.
Human serum and plasma samples [HDL] determination was done on a Roche/Hitachi Cobas c 701/702 system which automatically calculate the analyte concentration of each sample. Samples containing precipitates are centrifuged before performing the assay.

[1] = 50 mg q.d. non responders switching to 100 mg q.d. at week 12 (N = 15), week 1
[2] = 50 mg q.d. non responders switching to 100 mg q.d. at week 12 (N = 15), week 2
[3] = 50 mg q.d. non responders switching to 100 mg q.d. at week 12 (N = 15), week 4
[4] = 50 mg q.d. non responders switching to 100 mg q.d. at week 12 (N = 15), week 8
[5] = 50 mg q.d. non responders switching to 100 mg q.d. at week 12 (N = 15), week 12
[6] = 50 mg q.d. non responders switching to 100 mg q.d. at week 12 (N = 15), week 16
[7] = 50 mg q.d. non responders switching to 100 mg q.d. at week 12 (N = 15), week 20
[8] = 50 mg q.d. non responders switching to 100 mg q.d. at week 12 (N = 15), week 24
[9] = 50 mg q.d. non responders switching to 100 mg q.d. at week 12, week 1
[10] = 50 mg q.d. non responders switching to 100 mg q.d. at week 12, week 2
[11] = 50 mg q.d. non responders switching to 100 mg q.d. at week 12, week 4
[12] = 50 mg q.d. responders (N = 57), week 1
[13] = 50 mg q.d. responders (N = 57), week 2
[14] = 50 mg q.d. responders (N = 57), week 4
[15] = 50 mg q.d. responders (N = 57), week 8
[16] = 50 mg q.d. responders (N = 57), week 12
[17] = 50 mg q.d. responders (N = 57), week 16
[18] = 50 mg q.d. responders (N = 57), week 20
[19] = 50 mg q.d. responders (N = 57), week 24

O=C(Nc1nc2cccc(-c3ccc(CN4CCS(=O)(=O)CC4)cc3)n2n1)C1CC1 [Compound 1, cyclopropanecarboxylic acid {5-[4-(1,1-dioxo-thiomorpholin-4-ylmethyl)-phenyl]-[1,2,4]triazolo[1,5-a]pyridin-2yl}-amide]
[HDL] Mean CFB (50 mg q.d. (N = 72), week 1): 0.033 mmol/L
[HDL] Median CFB (50 mg q.d. (N = 72), week 1): 0.050 mmol/L
[HDL] Mean CFB (50 mg q.d. (N = 72), week 2): 0.055 mmol/L
[HDL] Median CFB (50 mg q.d. (N = 72), week 2): 0.000 mmol/L
[HDL] Mean CFB (50 mg q.d. (N = 72), week 4): 0.102 mmol/L
[HDL] Median CFB (50 mg q.d. (N = 72), week 4): 0.100 mmol/L
[HDL] Mean CFB (50 mg q.d. (N = 72), week 8): 0.120 mmol/L
[HDL] Median CFB (50 mg q.d. (N = 72), week 8): 0.110 mmol/L
[HDL] Mean CFB (50 mg q.d. (N = 72), week 12): 0.078 mmol/L
[HDL] Median CFB (50 mg q.d. (N = 72), week 12): 0.065 mmol/L
[HDL] Mean CFB - 24 weeks results [1]: 0.08 mmol/L
[HDL] Median CFB - 24 weeks results [1]: 0.05 mmol/L
[HDL] Mean CFB - 24 weeks results [2]: 0.05 mmol/L
[HDL] Median CFB - 24 weeks results [2]: 0.04 mmol/L
[HDL] Mean CFB - 24 weeks results [3]: 0.14 mmol/L
[HDL] Median CFB - 24 weeks results [3]: 0.11 mmol/L
[HDL] Mean CFB - 24 weeks results [4]: 0.09 mmol/L
[HDL] Median CFB - 24 weeks results [4]: 0.10 mmol/L
[HDL] Mean CFB - 24 weeks results [5]: 0.15 mmol/L
[HDL] Median CFB - 24 weeks results [5]: 0.14 mmol/L
[HDL] Mean CFB - 24 weeks results [6]: 0.20 mmol/L
[HDL] Median CFB - 24 weeks results [6]: 0.21 mmol/L
[HDL] Mean CFB - 24 weeks results [7]: 0.21 mmol/L
[HDL] Median CFB - 24 weeks results [7]: 0.25 mmol/L
[HDL] Mean CFB - 24 weeks results [8]: 0.30 mmol/L
[HDL] Median CFB - 24 weeks results [8]: 0.31 mmol/L
[HDL] Mean percentage CFB - 24 weeks results [9]: 5.25%
[HDL] Median percentage CFB - 24 weeks results [9]: 3.68%
[HDL] Mean percentage CFB - 24 weeks results [10]: 4.69%
[HDL] Median percentage CFB - 24 weeks results [10]: 4.17%
[HDL] Mean percentage CFB - 24 weeks results [11]: 10.56%
[HDL] Median percentage CFB - 24 weeks results [11]: 10.14%
[HDL] Mean percentage CFB - 24 weeks results (50 mg q.d. non responders switching to 100 mg q.d. at week 12, week 8): 5.96%
[HDL] Median percentage CFB - 24 weeks results (50 mg q.d. non responders switching to 100 mg q.d. at week 12, week 12): 7.95%
[HDL] Median percentage CFB - 24 weeks results (50 mg q.d. non responders switching to 100 mg q.d. at week 12, week 16): 14.34%
[HDL] Median percentage CFB - 24 weeks results (50 mg q.d. non responders switching to 100 mg q.d. at week 12, week 20): 16.22%
[HDL] Median percentage CFB - 24 weeks results (50 mg q.d. non responders switching to 100 mg q.d. at week 12, week 24): 19.84%
[HDL] Mean CFB - 24 weeks results [12]: 0.02 mmol/L
[HDL] Median CFB - 24 weeks results [12]: 0.04 mmol/L
[HDL] Mean CFB - 24 weeks results [13]: 0.05 mmol/L
[HDL] Median CFB - 24 weeks results [13]: 0.00 mmol/L
[HDL] Mean CFB - 24 weeks results [14]: 0.09 mmol/L
[HDL] Median CFB - 24 weeks results [14]: 0.10 mmol/L
[HDL] Mean CFB - 24 weeks results [15]: 0.13 mmol/L
[HDL] Median CFB - 24 weeks results [15]: 0.14 mmol/L
[HDL] Mean CFB - 24 weeks results [16]: 0.06 mmol/L
[HDL] Median CFB - 24 weeks results [16]: 0.05 mmol/L
[HDL] Mean CFB - 24 weeks results [17]: 0.08 mmol/L
[HDL] Median CFB - 24 weeks results [17]: 0.03 mmol/L
[HDL] Mean CFB - 24 weeks results [18]: 0.11 mmol/L
[HDL] Median CFB - 24 weeks results [18]: 0.08 mmol/L
[HDL] Mean CFB - 24 weeks results [19]: 0.17 mmol/L
[HDL] Median CFB - 24 weeks results [19]: 0.10 mmol/L
[HDL] Mean percentage CFB - 24 weeks results (50 mg q.d. responders, week 1): 1.48%
[HDL] Median percentage CFB - 24 weeks results (50 mg q.d. responders, week 1): 2.78%
[HDL] Mean percentage CFB - 24 weeks results (50 mg q.d. responders, week 2): 4.14%
[HDL] Mean percentage CFB - 24 weeks results (50 mg q.d. responders, week 4): 7.26%
[HDL] Median percentage CFB - 24 weeks results (50 mg q.d. responders, week 4): 8.30%
[HDL] Mean percentage CFB - 24 weeks results (50 mg q.d. responders, week 8): 9.33%
[HDL] Median percentage CFB - 24 weeks results (50 mg q.d. responders, week 8): 8.81%
[HDL] Mean percentage CFB - 24 weeks results (50 mg q.d. responders, week 12): 4.45%
[HDL] Median percentage CFB - 24 weeks results (50 mg q.d. responders, week 12): 4.00%
[HDL] Mean percentage CFB - 24 weeks results (50 mg q.d. responders, week 16): 6.26%
[HDL] Median percentage CFB - 24 weeks results (50 mg q.d. responders, week 16): 2.82%
[HDL] Mean percentage CFB - 24 weeks results (50 mg q.d. responders, week 20): 7.61%
[HDL] Median percentage CFB - 24 weeks results (50 mg q.d. responders, week 20): 5.63%
[HDL] Mean percentage CFB - 24 weeks results (50 mg q.d. responders, week 24): 11.90%
[HDL] Mean percentage CFB - 12 weeks results (week 1): 2.27%
[HDL] Median percentage CFB - 12 weeks results (week 1): 3.23%
[HDL] Mean percentage CFB - 12 weeks results (week 2): 4.26%
[HDL] Median percentage CFB - 12 weeks results (week 2): 0.00%
[HDL] Mean percentage CFB - 12 weeks results (week 4): 7.96%
[HDL] Median percentage CFB - 12 weeks results (week 4): 8.70%
[HDL] Mean percentage CFB - 12 weeks results (week 8): 8.60%
[HDL] Median percentage CFB - 12 weeks results (week 8): 7.00%
[HDL] Mean percentage CFB - 12 weeks results (week 12): 5.77%
[HDL] Median percentage CFB - 12 weeks results (week 12): 4.67%
[HDL] Mean CFB (100 mg q.d. (N = 70), week 1): 0.085 mmol/L
[HDL] Mean CFB - 24 weeks results (100 mg q.d. (N = 70), week 1): 0.09 mmol/L
[HDL] Median CFB (100 mg q.d. (N = 70), week 1): 0.050 mmol/L
[HDL] Median CFB - 24 weeks results (100 mg q.d. (N = 70), week 1): 0.05 mmol/L
[HDL] Mean CFB (100 mg q.d. (N = 70), week 2): 0.131 mmol/L
[HDL] Mean CFB - 24 weeks results (100 mg q.d. (N = 70), week 2): 0.13 mmol/L
[HDL] Median CFB (100 mg q.d. (N = 70), week 2): 0.100 mmol/L
[HDL] Median CFB - 24 weeks results (100 mg q.d. (N = 70), week 2): 0.10 mmol/L
[HDL] Mean CFB (100 mg q.d. (N = 70), week 4): 0.194 mmol/L
[HDL] Mean CFB - 24 weeks results (100 mg q.d. (N = 70), week 4): 0.19 mmol/L
[HDL] Median CFB (100 mg q.d. (N = 70), week 4): 0.175 mmol/L
[HDL] Median CFB - 24 weeks results (100 mg q.d. (N = 70), week 4): 0.18 mmol/L
[HDL] Mean CFB (100 mg q.d. (N = 70), week 8): 0.171 mmol/L
